Reference: US20050143427A1, “[B]-fused bicyclic proline derivatives and their use for treating arthritic conditions” (priority 2003, published 2005)
pIC50: −log10 of the molar value.

Tests used:
[1] = molecular target: alpha-2-delta receptor 1 (A2DR1) (Homo sapiens, UniProt P54289); test: [3H]Gabapentin A2DR1 binding assay (filter, Biological Method 4); details: displacement of [3H]-gabapentin
Source text: (§1) HEK 293 recombinant cells expressing A2DR1 or A2DR2 protein are harvested and washed in phosphate buffered saline (“PBS”). The cells are centrifuged and resuspended in tris(hydroxymethyl)aminomethane-ethylenediaminetetraacetic acid (“Tris-EDTA” or “TE”) buffer containing Roche Complete Protease Inhibitor Cocktail. The cells are homogenized, centrifuged at 3000×g, and the supernatant centrifuged again at 50,000×g. The resulting pellet is resuspended and homogenized in TE. Following determination of A2DR1 or A2DR2 protein concentration, aliquots are stored at −70° C. until the day of testing (membrane preparation may be used for at least 6 months).
(§2) In one version, the binding assay is set up in a 96-well format using deep-well polypropylene plates. In a total volume of 500 μL, the following additions are made: 250 μL buffer [[…] N-2-hydroxyethylpiperazine-N′-2-ethanesulfonic acid (“HEPES”), pH 7.4], 25 μL [3H]gabapentin (10 nM final concentration), 200 μL thawed tissue membrane preparation from Step (1) (˜40 μg protein), and 25 μL of test compound at 7 test dilutions (for example, 0.001, 0.01, 0.03, 0.1, 0.3, 1.0, and 10 μM concentrations). Non-specific binding for each plate is determined by the addition of 10 μM of pregabalin instead of test compound in a few of the 96 wells. Following incubation for 45 minutes at 21° C., the contents of the wells are filtered under vacuum onto glass filter/B (“GF/B”) filter mats and then washed 4×1 mL with chilled 50 mM tris(hydroxymethyl)aminomethane (“Tris”) HCl, pH 6.9. The mats are placed into plastic pouches, scintillation cocktail is added, the pouches are sealed, and radioactivity for each sample is counted.
(§3) Specific binding values for each concentration are transformed and then analyzed by a 4-parameter nonlinear regression equation provided by Prism graphics software by Graph Pad to determine IC50 values by conventional means.

[2] = molecular target: T1, alpha-2-delta receptor 2 (A2DR2) (Homo sapiens, UniProt Q9NY47); test: [3H]Gabapentin A2DR2 binding assay (filter, Biological Method 4); details: displacement of [3H]-gabapentin
T1 construct: expressed in transfected cells; host or cells: HEK 293 (membrane preparation)
T1 sequence (Q9NY47 19-1150): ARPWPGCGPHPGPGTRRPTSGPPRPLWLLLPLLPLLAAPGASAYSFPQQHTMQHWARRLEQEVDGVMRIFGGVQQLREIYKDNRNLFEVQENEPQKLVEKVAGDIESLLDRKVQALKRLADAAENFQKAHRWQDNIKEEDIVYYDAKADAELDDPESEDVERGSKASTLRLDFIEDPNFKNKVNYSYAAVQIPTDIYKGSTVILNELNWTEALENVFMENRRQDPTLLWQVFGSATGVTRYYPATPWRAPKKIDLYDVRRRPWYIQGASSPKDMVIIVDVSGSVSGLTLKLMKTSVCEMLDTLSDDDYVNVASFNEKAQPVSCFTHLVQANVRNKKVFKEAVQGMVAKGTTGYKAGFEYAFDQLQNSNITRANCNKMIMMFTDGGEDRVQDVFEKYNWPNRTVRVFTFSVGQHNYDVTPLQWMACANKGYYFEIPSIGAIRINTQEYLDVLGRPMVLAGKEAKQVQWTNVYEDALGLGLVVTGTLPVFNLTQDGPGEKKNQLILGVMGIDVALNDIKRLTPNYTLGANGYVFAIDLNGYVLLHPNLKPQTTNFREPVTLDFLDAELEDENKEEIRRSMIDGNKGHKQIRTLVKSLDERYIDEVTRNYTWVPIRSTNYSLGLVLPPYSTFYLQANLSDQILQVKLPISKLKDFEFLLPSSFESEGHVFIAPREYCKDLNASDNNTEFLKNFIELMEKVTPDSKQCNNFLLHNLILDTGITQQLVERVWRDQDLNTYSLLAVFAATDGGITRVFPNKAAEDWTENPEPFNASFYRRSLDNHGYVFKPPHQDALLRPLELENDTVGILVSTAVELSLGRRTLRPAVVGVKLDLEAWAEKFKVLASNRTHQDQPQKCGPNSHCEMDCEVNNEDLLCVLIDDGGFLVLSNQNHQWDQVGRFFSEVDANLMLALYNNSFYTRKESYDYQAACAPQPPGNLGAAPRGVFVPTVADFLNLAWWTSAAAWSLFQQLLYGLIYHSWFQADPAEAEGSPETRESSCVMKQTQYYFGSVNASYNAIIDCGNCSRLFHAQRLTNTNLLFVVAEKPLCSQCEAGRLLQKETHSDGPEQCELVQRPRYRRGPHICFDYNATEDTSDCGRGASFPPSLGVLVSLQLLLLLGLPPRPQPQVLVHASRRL
Source text: as §1, §2, §3

[3] = test system: MIA Rat (monosodium iodoacetate-induced osteoarthritis, right knee joint); test: Monosodium iodoacetate-induced osteoarthritis in rat model of joint cartilage damage (MIA Rat); type: in vivo; details: 10 mg/kg/day via osmotic pump, 2-week MIA study, Day 14, rat
Source text: One end result of the induction of osteoarthritis in this model, as determined by histologic analysis, is the development of an osteoarthritic condition within the affected joint, as characterized by the loss of Toluidine blue staining and formation of osteophytes. Associated with the histologic changes is a concentration-dependent degradation of joint cartilage, as evidenced by affects on hind-paw weight distribution of the limb containing the affected joint, the presence of increased amounts of proteoglycan or hydroxyproline in the joint upon biochemical analysis, or histopathological analysis of the osteoarthritic lesions.
The invention compounds typically are not effective for relieving joint pain when administered in an acute model, such as the instant MIA Rat model, which has a duration of just 14 or 28 days.
Generally, In the MIA Rat model on Day 0, the hind-paw weight differential between the right arthritic joint and the left healthy joint of male Wistar rats (150 g) are determined with an incapacitance tester, model 2KG (Linton Instrumentation, Norfolk, United Kingdom). The incapacitance tester has a chamber on top with an outwardly sloping front wall that supports a rat's front limbs, and two weight sensing pads, one for each hind paw, that facilitates this determination. Then the rats are anesthetized with isofluorine, and the right, hind leg knee joint is injected with 1.0 mg of mono-iodoacetate (“MIA”) through the infrapatellar ligament. Injection of MIA into the joint results in the inhibition of glycolysis and eventual death of surrounding chondrocytes. The rats are further administered either an invention compound or vehicle (in the instant case, water) daily for 14 days or 28 days.
The invention compound is typically administered at a dose of 30 mg of per kilogram of rat per day (30 mg/kg/day), but may be administered at other doses such as, for example, 10 mg/kg/day, 60 mg/kg/day, 90-mg/kg/day, or 100 mg/kg/day according to the requirements of the invention compound being studied. It is well within the level of ordinary skill in the pharmaceutical arts to determine a proper dosage of an invention compound in this model.
Administration of an invention compound in this model is optionally by oral administration or by intravenous administration via an osmotic pump. After 7 and 14 days for a two week study, or 7, 14, and 28 days for a four week study, the hind-paw weight distribution is again determined. Typically, the animals administered vehicle alone place greater weight on their unaffected left hind paw than on their right hind paw, while animals administered an invention compound show a more normal (i.e., more like a healthy animal) weight distribution between their hind paws. This change in weight distribution was proportional to the degree of joint cartilage damage. Percent inhibition of a change in hind paw joint function is calculated as the percent change in hind-paw weight distribution for treated animals versus control animals. For example, for a two week study, [formula] wherein: ΔWC is the hind-paw weight differential between the healthy left limb and the arthritic limb of the control animal administered vehicle alone, as measured on Day 14; and • ΔWG is the hind-paw weight differential between the healthy left limb and the arthritic limb of the animal administered an invention compound as measured on Day 14.
In order to measure biochemical or histopathological end points in the MIA Rat model, some of the animals in the above study may be sacrificed, and the amounts of free proteoglycan in both the osteoarthritic right knee joint and the contralateral left knee joint may be determined by biochemical analysis. The amount of free proteoglycan in the contralateral left knee joint provides a baseline value for the amount of free proteoglycan in a healthy joint. […]

[4] = molecular target: pig alpha-2-delta receptor 1 (A2DR1) (Sus scrofa, UniProt A0A287BIN3); test: [3H]Gabapentin scintillant proximity A2DR1 binding assay (A2DR1 SPA, Biological Method 5); details: displacement of [3H]-gabapentin
Sequence of pig alpha-2-delta receptor 1 (A2DR1) (A0A287BIN3 1-1109): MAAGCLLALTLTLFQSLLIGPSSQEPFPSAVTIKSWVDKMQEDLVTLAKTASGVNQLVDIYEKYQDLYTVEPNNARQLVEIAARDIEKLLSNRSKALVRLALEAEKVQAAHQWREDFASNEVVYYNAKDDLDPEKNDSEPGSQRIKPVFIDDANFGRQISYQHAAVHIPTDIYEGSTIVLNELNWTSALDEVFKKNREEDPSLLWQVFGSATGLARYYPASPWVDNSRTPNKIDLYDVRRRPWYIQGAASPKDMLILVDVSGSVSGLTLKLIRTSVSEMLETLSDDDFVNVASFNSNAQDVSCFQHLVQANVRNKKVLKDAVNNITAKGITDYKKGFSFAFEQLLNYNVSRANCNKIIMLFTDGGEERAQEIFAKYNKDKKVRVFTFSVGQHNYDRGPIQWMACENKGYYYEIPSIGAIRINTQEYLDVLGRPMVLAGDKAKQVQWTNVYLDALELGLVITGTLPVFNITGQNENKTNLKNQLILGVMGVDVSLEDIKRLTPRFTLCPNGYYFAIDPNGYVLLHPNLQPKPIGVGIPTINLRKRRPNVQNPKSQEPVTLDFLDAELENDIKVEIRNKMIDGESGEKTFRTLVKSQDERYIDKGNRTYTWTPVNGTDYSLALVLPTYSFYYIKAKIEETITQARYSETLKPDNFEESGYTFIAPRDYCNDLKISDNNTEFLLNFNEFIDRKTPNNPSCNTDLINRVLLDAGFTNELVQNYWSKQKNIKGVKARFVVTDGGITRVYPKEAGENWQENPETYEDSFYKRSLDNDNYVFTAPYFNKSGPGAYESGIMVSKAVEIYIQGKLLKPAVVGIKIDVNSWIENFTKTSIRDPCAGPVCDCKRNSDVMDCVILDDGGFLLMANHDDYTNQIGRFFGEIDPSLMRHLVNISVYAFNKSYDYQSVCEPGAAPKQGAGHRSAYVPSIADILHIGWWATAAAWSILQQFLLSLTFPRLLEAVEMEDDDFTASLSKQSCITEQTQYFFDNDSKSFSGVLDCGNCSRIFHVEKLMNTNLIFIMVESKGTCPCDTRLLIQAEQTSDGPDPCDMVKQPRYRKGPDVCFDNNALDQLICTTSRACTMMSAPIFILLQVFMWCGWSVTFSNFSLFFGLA
Procedure: (§4) Recombinant HEK 293 cells expressing pig A2DR1 and A2DR2 subunits were grown under normal cell culture conditions (RPMI-1640 media with 10% FBS, 200 μg G418, and 1% penicillin/streptomycin 1t 37° C. with 5% CO2) until reaching confluency in T-75 flasks, at which time they were harvested. The harvested cells were suspended in ice-cold 5 mM Tris/5 mM ethylenediaminetetraacetic acid (“EDTA”) buffer, pH 7.4 (“TE buffer”) containing phenylmethylsulfonyl fluoride (“PMSF”) (0.1 mM) and Roche Complete Protease Inhibitor Cocktail, and allowed to sit on ice for 30 minutes. The cells were broken by sonication using 20 bursts, 40-50 cycles, and then centrifuged at 3000×g for 10 minutes. The resulting supernatant was transferred to a new tube and centrifuged at 50,000×g for 30 minutes. The resulting pellet was resuspended in 10 mM HEPES buffer, pH 7.4, homogenized, and stored at—80° C. The A2DR1 or A2DR2 membrane protein concentration was determined by the Pierce BCA method using bovine serum albumin (“BSA”) as the standard.
(§5) The [^3H]gabapentin SPA binding assay was performed in Costar 3632 96-well, clear bottom assay plates using Wheatgerm agglutinin beads (Amersham Pharmacia Biotech). Pig A2DR1 or A2DR2 membranes (10-20 μg protein per well) prepared above in Step (1) and SPA beads (0.5 mg per well) were mixed with 30 nM [^3H]gabapentin (52 Ci/mmol; Amersham Pharmacia Biotech) in 10 mM HEPES/10 mM MgSO4 assay buffer, pH 7.4 using KOH. The final well volume was 200 μL and non-specific binding was determined in the presence of 10 μM unlabeled pregabalin. The final mixture containing A2DR1 or A2DR2 membrane protein incubated with SPA beads, test compounds, and [^3H]gabapentin was incubated at room temperature for 15-24 hours, and the plates were then counted on a Wallace Trilux 1450 Microbeta scintillation counter. Step (3): Determination of IC50 values
(§6) Curve fitting and IC50 values were calculated using a four-parameter, non-linear regression equation from GraphPad Prism 3.0 software, while Ki values were determined using the equation of Chang and Prussoff.

[5] = molecular target: pig alpha-2-delta receptor 2 (A2DR2) (UniProt A0A8W4FF87); test: [3H]Gabapentin scintillant proximity A2DR2 binding assay (A2DR2 SPA, Biological Method 5); details: displacement of [3H]-gabapentin
Procedure: as §4, §5, §6

Sequence of alpha-2-delta receptor 1 (A2DR1) (P54289 25-1103): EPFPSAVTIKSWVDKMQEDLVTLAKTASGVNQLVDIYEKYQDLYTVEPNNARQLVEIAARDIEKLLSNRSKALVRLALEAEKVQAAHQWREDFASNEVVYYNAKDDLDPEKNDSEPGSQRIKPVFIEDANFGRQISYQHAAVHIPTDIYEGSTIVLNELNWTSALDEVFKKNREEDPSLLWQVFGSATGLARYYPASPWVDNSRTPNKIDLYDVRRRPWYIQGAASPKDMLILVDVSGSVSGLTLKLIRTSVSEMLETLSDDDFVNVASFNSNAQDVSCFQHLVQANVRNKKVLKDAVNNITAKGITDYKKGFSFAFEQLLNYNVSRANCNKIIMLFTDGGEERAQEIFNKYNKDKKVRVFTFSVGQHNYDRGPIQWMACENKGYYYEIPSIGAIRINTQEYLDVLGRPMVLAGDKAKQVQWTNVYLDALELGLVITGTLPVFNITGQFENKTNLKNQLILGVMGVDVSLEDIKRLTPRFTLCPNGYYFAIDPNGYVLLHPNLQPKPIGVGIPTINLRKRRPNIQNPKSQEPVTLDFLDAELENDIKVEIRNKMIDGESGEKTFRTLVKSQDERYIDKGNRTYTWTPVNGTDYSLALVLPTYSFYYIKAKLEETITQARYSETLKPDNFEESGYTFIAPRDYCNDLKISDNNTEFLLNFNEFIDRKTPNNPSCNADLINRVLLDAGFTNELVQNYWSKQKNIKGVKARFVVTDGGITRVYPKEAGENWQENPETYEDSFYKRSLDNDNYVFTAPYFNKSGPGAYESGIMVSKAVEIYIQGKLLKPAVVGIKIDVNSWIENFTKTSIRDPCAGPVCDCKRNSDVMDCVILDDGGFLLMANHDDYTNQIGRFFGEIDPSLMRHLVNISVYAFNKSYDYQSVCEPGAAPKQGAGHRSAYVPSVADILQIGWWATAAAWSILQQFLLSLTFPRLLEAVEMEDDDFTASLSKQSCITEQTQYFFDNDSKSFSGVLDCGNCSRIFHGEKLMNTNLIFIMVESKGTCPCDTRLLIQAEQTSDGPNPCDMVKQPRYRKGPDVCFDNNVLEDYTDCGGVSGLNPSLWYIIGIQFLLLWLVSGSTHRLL

melting point | SMILES | pIC50 [1] | pIC50 [2] | % I @ 10 mg/kg/day (%) (± SEM): inhibition of loss of hind limb joint function in MIA at Day 14 [3] | pIC50 [4] | pIC50 [5]
189 to 192 °C | CN1[C@H](C(=O)NS(=O)(=O)C(F)(F)F)C[C@@H]2CCCC[C@@H]21 [Example E4] | ≤ 5.00 | ≤ 5.00 |  |  | 
 | CN1C(C(=O)O)C[C@@H]2CCCC[C@@H]21 (mixture of isomers) [Example A4] |  | ≤ 5.00 | 67 ± 8 | ≤ 5.00 | ≤ 5.00
 | NC1CCC2NC(C(=O)O)CC2C1 (stereo not drawn) [Example O7] | ≤ 5.00 | ≤ 5.00 | −63 ± 14 |  | 
189 to 195 °C | CN(C)CCOC(=O)[C@@H]1C[C@@H]2CCCC[C@@H]2N1.Cl |  |  |  |  | 
200 to 205 °C | O=C(O)[C@@H]1C[C@H]2CCC(c3ccccc3)C[C@H]2N1 (stereo partly drawn) |  |  |  |  | 
188 to 190 °C | CCC1CC[C@@H]2C[C@@H](C(=O)O)N[C@@H]2C1.Cl (stereo partly drawn) |  |  |  |  | 
 | CC1(C(=O)O)C[C@@H]2CCCC[C@@H]2N1 (mixture of isomers) [Example B2] | 5.55 | ≤ 5.00 | 58 ± 12 | ≤ 5.00 | ≤ 5.00
 | CC1CCC2NC(C(=O)O)CC2C1 (stereo not drawn) [Example O5] | 6.96 | 6.54 | −32 ± 20 | 5.55 | ≤ 5.00
 | O=C(NC1CCC2NC(C(=O)O)CC2C1)C1CCCCC1 (stereo not drawn) [Example O6] | ≤ 5.00 | ≤ 5.00 | −48 ± 10 |  | 
247 to 249 °C | O=C(NS(=O)(=O)C(F)(F)F)[C@@H]1C[C@@H]2CCCC[C@@H]2N1 [Example E3] | ≤ 5.00 | ≤ 5.00 |  |  | 
240 °C (dec.) | C1CC[C@@H]2N[C@H](c3nnn[nH]3)C[C@@H]2C1 |  |  |  |  | 
